Results on 27 compounds are retold here after ChEMBL document CHEMBL1156829 (Proc Natl Acad Sci U S A, 2008).

Broadly, the EC50 is the concentration that produces a half-maximal response. What is called CC50 is the concentration giving 50% cytotoxicity.

“And” between values parts separate entries of the source, which are not always exact repeats. Equal entries are not always repeated.

For data set [1], the system named is Plasmodium falciparum. Description: NOVARTIS: Inhibition of Plasmodium falciparum 3D7 (drug-susceptible) proliferation in erythrocyte-based infection assay. It counts as functional, organism-based.
Data set [2] concerns Plasmodium falciparum. Description: NOVARTIS: Inhibition of Plasmodium falciparum W2 (drug-resistant) proliferation in erythrocyte-based infection assay. The settings on record: read-out: EC50. It counts as functional, organism-based.
The nature of data set [3]: NOVARTIS: Cytotoxicity against human hepatocellular carcinoma cell line (Huh7). It counts as toxicity, cell-based, Huh-7. The settings on record: Huh7 cells (hepatocellular carcinoma cell line).

For the compound `CCN1C(=Cc2sc3ccccc3[n+]2C)C=Cc2ccc(C)cc21`, the concentration for a half-maximal effect (EC50) is 1650 nM in the data set on Plasmodium falciparum [1] and more than 1420 nM with Plasmodium falciparum [2]. Further, in data set [3], the CC50 was more than 11800 nM.

Consider `CCCC[n+]1c(C=C2C=Cc3ccccc3N2CC)sc2ccccc21`, for which the concentration giving a half-maximal response (EC50) was 724 nM in the data set with Plasmodium falciparum [1] and 694 nM with Plasmodium falciparum [2]. The same compound registered a CC50 in data set [3] of more than 10000 nM.

In the case of `Cc1cc(Nc2cc3ccccc3cc2O)n2ncnc2n1`, the EC50 with Plasmodium falciparum [1] (Plasmodium falciparum, 3D7) worked out at 1340 nM; in the data set with Plasmodium falciparum [2] (Plasmodium falciparum, W2), 1290 nM. Besides, in data set [3], the cytotoxic concentration (CC50) turned out to be 1750 nM.

In turn, `CCOC(=O)c1c[nH]c2c(ccc3ccccc32)c1=O` came in with a CC50 in data set [3] of more than 100000 nM.

For the compound `Cc1ccc(Cl)cc1-n1c(SCc2ccccc2)nnc1C(Cc1ccccc1)NC(=O)C12CC3CC(CC(C3)C1)C2` (configuration not stated), the EC50 in the data set on Plasmodium falciparum [1] (Plasmodium falciparum, 3D7) is more than 1250 nM; in the data set with Plasmodium falciparum [2] (Plasmodium falciparum, W2), more than 954 nM. The same compound displayed a CC50 in data set [3] of 1130 nM.

As for `CC(C)CN1C(=O)c2ccccc2C(C(=O)Nc2cccc(Cl)c2)C1c1cccs1` (configuration not stated), the half-maximal cytotoxic concentration (CC50) in data set [3] stood at 93600 nM.

On to `CC1=CC(=O)OC[C@]23CCC(C)=C[C@H]2O[C@@H]2C[C@@H](OC(=O)C=CC=CC(=O)OCC1)[C@@]3(C)[C@]21CO1`, for which the 50% effective concentration (EC50) in the data set on Plasmodium falciparum [1] was 3.91 nM; in the data set on Plasmodium falciparum [2], 9.18 nM. The same compound came in with a cytotoxic concentration (CC50) in data set [3] of 206 nM.

Take `CCCCCN(C(=O)CCc1ccccc1)C(CC)c1nc2ccccc2c(=O)n1-c1ccc(Cl)cc1C` (configuration not stated): the EC50 is more than 1000 nM in the data set on Plasmodium falciparum [1] (Plasmodium falciparum, 3D7) and 1740 nM in the data set on Plasmodium falciparum [2] (Plasmodium falciparum, W2). In data set [3], this compound returned a CC50 of more than 305 nM.

On to `CCN1C(=Cc2sc3ccc(Cl)cc3[n+]2CC)C=Cc2cc(OC)ccc21`, for which the EC50 in the data set with Plasmodium falciparum [1] came to 473 nM; in the data set with Plasmodium falciparum [2], 602 nM. Also, the CC50 in data set [3] is more than 10000 nM.

For `Cc1cccc(OCC(O)CN2CCN(CC(=O)c3ccc(Br)cc3)CC2)c1` (configuration not stated), the EC50 was more than 1250 nM with Plasmodium falciparum [1] (Plasmodium falciparum, 3D7) and 896 nM in the data set with Plasmodium falciparum [2] (Plasmodium falciparum, W2). The compound further yielded a CC50 in data set [3] of 214 nM.

As for `Cc1ccc(C(=O)Nc2ccc(-c3nc4ccc(NC(=O)c5ccc(C)cc5)cc4[nH]3)cc2)cc1`, the EC50 with Plasmodium falciparum [1] (Plasmodium falciparum, 3D7) is 1570 nM; with Plasmodium falciparum [2] (Plasmodium falciparum, W2), more than 5780 nM. The compound also displayed a half-maximal cytotoxic concentration (CC50) in data set [3] of 1890 nM.

In data set [3], `CC(C)CN1C(=O)c2ccccc2C(C(=O)Nc2ccccc2F)C1c1cccs1` (configuration not stated) gave a CC50 of more than 100000 nM.

For the compound `COc1ccc(SC2CCN(C3CCOCC3)CC2)cc1`, the EC50 was more than 1470 nM in the data set with Plasmodium falciparum [1] (Plasmodium falciparum, 3D7) and 358 nM with Plasmodium falciparum [2] (Plasmodium falciparum, W2). In data set [3], this compound yielded a CC50 of 240 nM.

`O=C(Nc1cc(Cl)cc(Cl)c1)Nc1cccc(C(F)(F)F)c1`: the EC50 in the data set with Plasmodium falciparum [1] (Plasmodium falciparum, 3D7) was 13.8 nM; in the data set on Plasmodium falciparum [2] (Plasmodium falciparum, W2), more than 12500 nM. In addition, the CC50 in data set [3] is 14900 nM.

As for `Oc1ccc(C=NN=C(Nc2ccccn2)c2ccccn2)c(O)c1`, the concentration for a half-maximal effect (EC50) in the data set on Plasmodium falciparum [1] (Plasmodium falciparum, 3D7) is more than 1250 nM; in the data set with Plasmodium falciparum [2] (Plasmodium falciparum, W2), more than 674 nM. This compound also showed a CC50 in data set [3] of more than 245 nM.

On to `Cn1ncnc2c(=O)n(C)c(=O)nc1-2`, for which the EC50 is more than 12500 nM with Plasmodium falciparum [1] (Plasmodium falciparum, 3D7) and 481 nM in the data set with Plasmodium falciparum [2] (Plasmodium falciparum, W2). Moreover, it took 199 nM to reach half-maximal cytotoxicity in data set [3] (CC50).

Turning to `CN(/C=C/C1=[N+](C)c2ccc(Cl)cc2C1(C)C)c1ccccc1`, the EC50 was 1360 nM and 455 nM in the data set on Plasmodium falciparum [1]; 900 nM and 2040 nM with Plasmodium falciparum [2]. This compound also displayed a CC50 in data set [3] of more than 92800 nM.

As for `COc1ccc(CCN(C(=S)Nc2ccccc2)C2CC(=O)N(c3ccc(F)cc3)C2=O)cc1OC` (configuration not stated), the concentration giving a half-maximal response (EC50) is more than 1740 nM with Plasmodium falciparum [1] (Plasmodium falciparum, 3D7) and 1560 nM with Plasmodium falciparum [2] (Plasmodium falciparum, W2). Moreover, in data set [3], the CC50 is more than 1910 nM.

As for `CCc1nc2ccc(NC(=O)c3ccncc3)cc2c(=O)n1Cc1cccc(OC)c1`, the EC50 came to 1570 nM in the data set with Plasmodium falciparum [1] (Plasmodium falciparum, 3D7) and 427 nM in the data set on Plasmodium falciparum [2] (Plasmodium falciparum, W2). The compound further came in with a CC50 in data set [3] of more than 570 nM.

Regarding `CCN(CC)Cc1ccc2c(NC(=O)c3ccc(C)s3)c(C(=O)OC)sc2n1`, the EC50 in the data set on Plasmodium falciparum [1] (Plasmodium falciparum, 3D7) was determined as 1230 nM; in the data set on Plasmodium falciparum [2] (Plasmodium falciparum, W2), 1190 nM. Further, the CC50 in data set [3] is 1240 nM.

Take `Cc1oc2c(c1C(=O)NCc1cccnc1)C(=O)c1ccccc1C2=O`: the concentration for a half-maximal effect (EC50) in the data set with Plasmodium falciparum [1] (Plasmodium falciparum, 3D7) came out at 1500 nM; with Plasmodium falciparum [2] (Plasmodium falciparum, W2), 1750 nM. In data set [3], this compound had a CC50 of 1910 nM.

`FC(F)(F)c1cccc(Nc2nc3nonc3nc2Nc2ccc(Br)cc2)c1`: the EC50 in the data set with Plasmodium falciparum [1] (Plasmodium falciparum, 3D7) was 7620 nM; in the data set on Plasmodium falciparum [2] (Plasmodium falciparum, W2), 5200 nM. The compound further gave a CC50 in data set [3] of 7130 nM.

With `CC(C)CN1C(=O)c2ccccc2C(C(=O)Nc2cccc(C(F)(F)F)c2)C1c1cccs1` (configuration not stated), in data set [3], the CC50 was more than 100000 nM.

As to `CC1=CC(=O)OC[C@]23C[C@H](O)C(C)=C[C@H]2O[C@@H]2C[C@@H](OC(=O)C=CC=CC(=O)OCC1)[C@@]3(C)[C@]21CO1`, the EC50 was determined as 2.44 nM in the data set with Plasmodium falciparum [1] and 1.77 nM in the data set on Plasmodium falciparum [2]. In data set [3], this compound showed a CC50 of 83.7 nM.

As for `C=CC12CCN(CC1)C(C(O)c1ccnc3ccc(OC)cc13)C2` (configuration not stated), the half-maximal effective concentration (EC50) with Plasmodium falciparum [2] (Plasmodium falciparum, W2) was 29.3 nM. For the same compound, half-maximal cytotoxicity in data set [3] (CC50) was put at 77700 nM.

`C=CCN1C=CC(=Cc2sc3ccccc3[n+]2C)c2ccccc21`: the EC50 in the data set on Plasmodium falciparum [1] came out at 432 nM; in the data set with Plasmodium falciparum [2] (Plasmodium falciparum, W2), 125 nM. For the same compound, the 50% cytotoxic concentration (CC50) in data set [3] is more than 9370 nM.

As to `CC[n+]1ccc(C=Cc2ccc(N(C)C)cc2)cc1`, the EC50 in the data set with Plasmodium falciparum [1] was 409 nM; with Plasmodium falciparum [2], more than 4460 nM. In data set [3], this compound came in with a CC50 of more than 84900 nM.
